Measured values from PMC10141580, “Cyclic Dichalcogenides Extend the Reach of Bioreductive Prodrugs to Harness Thiol/Disulfide Oxidoreductases: Applications to seco-Duocarmycins Targeting the Thioredoxin System” (ACS Central Science, 2023).
Like-named read-outs stand apart in the source and are kept apart here.

Test system: NCI-60 standardized human tumor cell line panel
Assay: cells
Format: cell-based
Conditions: for NCI-60 screening: Log(GI50): log10 of GI50 in M; for NCI-60 screening: Log(RedIndex): log10 reductive index vs P-CC60

SMILES: COc1cc2cc(C(=O)N3CC(CCl)c4c3cc(OC(=O)N3CCN(C)C5CSSCC53)c3ccccc43)[nH]c2c(OC)c1OC (mixture of isomers) [Me-SS66C-CBI-TMI]
- NCI-60 screening: Log(GI50) (786-0 (RE) cell line): -6.71
- NCI-60 screening: Log(RedIndex) (786-0 (RE) cell line): 0.94
- GI50 (786-0 (RE) cell line, read-out: NCI-60 screening: Raw GI50): 200 nM
- GI50 (786-0, read-out: GI50): 200 nM
- NCI-60 screening: Log(GI50) (A498 (RE) cell line): -5.91
- NCI-60 screening: Log(RedIndex) (A498 (RE) cell line): 0.35
- GI50 (A498, read-out: GI50): 1200 nM
- GI50 (A549/ATCC, read-out: GI50): 180 nM
- NCI-60 screening: Log(GI50) (ACHN (RE) cell line): -7.55
- NCI-60 screening: Log(RedIndex) (ACHN (RE) cell line): 1.24
- GI50 (ACHN (RE) cell line, read-out: NCI-60 screening: Raw GI50): 28 nM
- GI50 (ACHN, read-out: GI50): 28 nM
- GI50 (BT-549, read-out: GI50): 170 nM
- NCI-60 screening: Log(GI50) (CAKI-1 (RE) cell line): -6.61
- NCI-60 screening: Log(RedIndex) (CAKI-1 (RE) cell line): 0.78
- GI50 (CAKI-1 (RE) cell line, read-out: NCI-60 screening: Raw GI50): 250 nM
- GI50 (CAKI-1, read-out: GI50): 250 nM
- GI50 (CCRF-CEM, read-out: GI50): 110 nM
- GI50 (COLO 205, read-out: GI50): 330 nM
- NCI-60 screening: Log(GI50) (DU-145 (PR) cell line): -7.2
- NCI-60 screening: Log(RedIndex) (DU-145 (PR) cell line): 0.86
- GI50 (DU-145, read-out: GI50): 63 nM
- GI50 (EKVX, read-out: GI50): 230 nM
- GI50 (HCC-2998, read-out: GI50): 140 nM
- GI50 (HCT-15, read-out: GI50): 250 nM
- GI50 (HCT-116, read-out: GI50): 190 nM
- GI50 (HL-60(TB), read-out: GI50): 52 nM
- GI50 (HOP-62, read-out: GI50): 200 nM
- GI50 (HOP-92, read-out: GI50): 240 nM
- GI50 (HT29, read-out: GI50): 230 nM
- NCI-60 screening: Log(GI50) (IGROV1 (OV) cell line): -5.82
- NCI-60 screening: Log(RedIndex) (IGROV1 (OV) cell line): 0.18
- GI50 (IGROV1, read-out: GI50): 1500 nM
- GI50 (K-562, read-out: GI50): 400 nM
- GI50 (KM12, read-out: GI50): 1100 nM
- GI50 (LOX IMVI, read-out: GI50): 170 nM
- GI50 (M14, read-out: GI50): 250 nM
- GI50 (MALME-3M, read-out: GI50): 210 nM
- GI50 (MCF7, read-out: GI50): 28 nM
- GI50 (MDA-MB-435, read-out: GI50): 840 nM
- GI50 (MDA-MB-468, read-out: GI50): 160 nM
- GI50 (MOLT-4, read-out: GI50): 70 nM
- GI50 (NCI-H23, read-out: GI50): 45 nM
- GI50 (NCI-H226, read-out: GI50): 1000 nM
- NCI-60 screening: Log(GI50) (NCI-H460 (LC) cell line): -7.39
- NCI-60 screening: Log(RedIndex) (NCI-H460 (LC) cell line): 1.1
- GI50 (NCI-H460, read-out: GI50): 41 nM
- NCI-60 screening: Log(GI50) (NCI-H522 (LC) cell line): -6.84
- NCI-60 screening: Log(RedIndex) (NCI-H522 (LC) cell line): 1.07
- GI50 (NCI-H522 (LC) cell line, read-out: NCI-60 screening: Raw GI50): 150 nM
- GI50 (NCI-H522, read-out: GI50): 150 nM
- NCI-60 screening: Log(GI50) (OVCAR-3 (OV) cell line): -6.31
- NCI-60 screening: Log(RedIndex) (OVCAR-3 (OV) cell line): 0.63
- GI50 (OVCAR-3, read-out: GI50): 490 nM
- NCI-60 screening: Log(GI50) (OVCAR-4 (OV) cell line): -5.79
- NCI-60 screening: Log(RedIndex) (OVCAR-4 (OV) cell line): 0.16
- GI50 (OVCAR-4, read-out: GI50): 1600 nM
- NCI-60 screening: Log(GI50) (OVCAR-5 (OV) cell line): -6.55
- NCI-60 screening: Log(RedIndex) (OVCAR-5 (OV) cell line): 1.26
- GI50 (OVCAR-5, read-out: GI50): 280 nM
- NCI-60 screening: Log(GI50) (OVCAR-8 (OV) cell line): -6.82
- NCI-60 screening: Log(RedIndex) (OVCAR-8 (OV) cell line): 1.04
- GI50 (OVCAR-8 (OV) cell line, read-out: NCI-60 screening: Raw GI50): 150 nM
- GI50 (OVCAR-8, read-out: GI50): 150 nM
- NCI-60 screening: Log(GI50) (PC-3 (PR) cell line): -6.45
- NCI-60 screening: Log(RedIndex) (PC-3 (PR) cell line): 0.94
- GI50 (PC-3, read-out: GI50): 360 nM
- GI50 (RPMI-8226, read-out: GI50): 160 nM
- NCI-60 screening: Log(GI50) (RXF 393 (RE) cell line): -6.88
- NCI-60 screening: Log(RedIndex) (RXF 393 (RE) cell line): 0.9
- GI50 (RXF 393 (RE) cell line, read-out: NCI-60 screening: Raw GI50): 130 nM
- GI50 (RXF 393, read-out: GI50): 130 nM
- GI50 (SF-268, read-out: GI50): 170 nM
- GI50 (SF-295, read-out: GI50): 130 nM
- GI50 (SF-539, read-out: GI50): 170 nM
- GI50 (SK-MEL-5, read-out: GI50): 170 nM
- GI50 (SK-MEL-28, read-out: GI50): 260 nM
- NCI-60 screening: Log(GI50) (SK-OV-3 (OV) cell line): -7.47
- NCI-60 screening: Log(RedIndex) (SK-OV-3 (OV) cell line): 1.8
- GI50 (SK-OV-3, read-out: GI50): 34 nM
- NCI-60 screening: Log(GI50) (SN12C (RE) cell line): -6.69
- NCI-60 screening: Log(RedIndex) (SN12C (RE) cell line): 0.77
- GI50 (SN12C (RE) cell line, read-out: NCI-60 screening: Raw GI50): 200 nM
- GI50 (SN12C, read-out: GI50): 200 nM
- GI50 (SNB-19, read-out: GI50): 220 nM
- GI50 (SR, read-out: GI50): 37 nM
- GI50 (SW-620, read-out: GI50): 260 nM
- GI50 (T-47D, read-out: GI50): 290 nM
- NCI-60 screening: Log(GI50) (TK-10 (RE) cell line): -5.89
- NCI-60 screening: Log(RedIndex) (TK-10 (RE) cell line): 0.34
- GI50 (TK-10, read-out: GI50): 1300 nM
- GI50 (U251, read-out: GI50): 140 nM
